Results from US20100137449A1, “SUBSTITUTED 1,3-CYCLOPENTADIONE MULTI-TARGET PROTEIN KINASE MODULATORS OF CANCER, ANGIOGENESIS AND THE INFLAMMATORY PATHWAYS ASSOCIATED THEREWITH” (METAPROTEOMICS, LLC, priority 2007, published 2010).

Columns and labels:
Test in all cases: KinaseProfiler Assay
[1] = target: MSK1(h) (Homo sapiens, UniProt O75582)
[2] = target: T1, TSSK2(h) (Homo sapiens, UniProt Q96PF2)
T1 sequence (Q96PF2 1-358): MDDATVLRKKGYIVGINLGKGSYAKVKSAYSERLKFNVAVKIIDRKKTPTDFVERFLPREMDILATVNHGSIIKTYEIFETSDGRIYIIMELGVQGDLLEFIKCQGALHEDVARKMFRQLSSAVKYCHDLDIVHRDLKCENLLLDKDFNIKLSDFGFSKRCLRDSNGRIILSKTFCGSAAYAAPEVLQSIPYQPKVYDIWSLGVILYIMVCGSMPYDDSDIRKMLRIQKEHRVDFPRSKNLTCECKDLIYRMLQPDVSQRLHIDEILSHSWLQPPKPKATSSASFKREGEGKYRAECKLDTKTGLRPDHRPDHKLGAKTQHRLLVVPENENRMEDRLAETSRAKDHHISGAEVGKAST

[3] = target: IRAK1(h) (Homo sapiens, UniProt P51617)
Chain of IRAK1(h) (P51617 whole entry): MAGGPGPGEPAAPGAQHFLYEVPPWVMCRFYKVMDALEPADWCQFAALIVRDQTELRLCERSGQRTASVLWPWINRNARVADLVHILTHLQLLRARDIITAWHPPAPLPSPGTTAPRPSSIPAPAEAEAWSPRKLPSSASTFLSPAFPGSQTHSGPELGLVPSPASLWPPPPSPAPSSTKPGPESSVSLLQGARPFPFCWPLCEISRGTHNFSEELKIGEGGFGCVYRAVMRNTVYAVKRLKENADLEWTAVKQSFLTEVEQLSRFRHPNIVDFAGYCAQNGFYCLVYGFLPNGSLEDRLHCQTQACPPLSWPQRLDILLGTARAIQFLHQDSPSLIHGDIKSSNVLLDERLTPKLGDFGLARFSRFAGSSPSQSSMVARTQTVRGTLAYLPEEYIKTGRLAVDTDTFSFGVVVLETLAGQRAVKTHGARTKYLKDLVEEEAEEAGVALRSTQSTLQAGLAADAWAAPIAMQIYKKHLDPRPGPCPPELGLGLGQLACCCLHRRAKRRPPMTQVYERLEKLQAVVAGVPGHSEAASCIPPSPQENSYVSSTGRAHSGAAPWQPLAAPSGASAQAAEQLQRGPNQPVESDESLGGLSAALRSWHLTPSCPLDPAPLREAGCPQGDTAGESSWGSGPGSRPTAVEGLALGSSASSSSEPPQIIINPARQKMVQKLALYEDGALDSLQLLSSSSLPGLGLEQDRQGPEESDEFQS

[4] = target: T2, Bmx(h) (Homo sapiens, UniProt P51813)
T2 sequence (P51813 1-675): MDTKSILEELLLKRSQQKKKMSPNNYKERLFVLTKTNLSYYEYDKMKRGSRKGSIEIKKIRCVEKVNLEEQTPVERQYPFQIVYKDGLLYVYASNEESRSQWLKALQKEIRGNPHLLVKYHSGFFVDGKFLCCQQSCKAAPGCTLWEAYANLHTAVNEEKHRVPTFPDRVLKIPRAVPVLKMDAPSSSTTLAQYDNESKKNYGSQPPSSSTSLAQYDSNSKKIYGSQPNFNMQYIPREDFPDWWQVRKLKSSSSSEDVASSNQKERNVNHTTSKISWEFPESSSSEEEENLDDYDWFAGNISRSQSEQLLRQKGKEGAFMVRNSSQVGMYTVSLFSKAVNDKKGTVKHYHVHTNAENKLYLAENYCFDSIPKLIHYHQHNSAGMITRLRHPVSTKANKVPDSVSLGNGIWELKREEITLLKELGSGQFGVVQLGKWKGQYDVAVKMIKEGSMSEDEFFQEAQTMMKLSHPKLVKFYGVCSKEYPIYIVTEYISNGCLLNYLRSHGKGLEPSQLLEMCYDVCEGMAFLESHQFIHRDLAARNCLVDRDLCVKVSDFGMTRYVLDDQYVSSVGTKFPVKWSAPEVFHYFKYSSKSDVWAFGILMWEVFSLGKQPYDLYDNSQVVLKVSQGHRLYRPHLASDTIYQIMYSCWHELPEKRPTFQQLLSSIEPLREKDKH

[5] = target: Yes(h) (Homo sapiens, UniProt P07947)
Chain of Yes(h) (P07947 whole entry): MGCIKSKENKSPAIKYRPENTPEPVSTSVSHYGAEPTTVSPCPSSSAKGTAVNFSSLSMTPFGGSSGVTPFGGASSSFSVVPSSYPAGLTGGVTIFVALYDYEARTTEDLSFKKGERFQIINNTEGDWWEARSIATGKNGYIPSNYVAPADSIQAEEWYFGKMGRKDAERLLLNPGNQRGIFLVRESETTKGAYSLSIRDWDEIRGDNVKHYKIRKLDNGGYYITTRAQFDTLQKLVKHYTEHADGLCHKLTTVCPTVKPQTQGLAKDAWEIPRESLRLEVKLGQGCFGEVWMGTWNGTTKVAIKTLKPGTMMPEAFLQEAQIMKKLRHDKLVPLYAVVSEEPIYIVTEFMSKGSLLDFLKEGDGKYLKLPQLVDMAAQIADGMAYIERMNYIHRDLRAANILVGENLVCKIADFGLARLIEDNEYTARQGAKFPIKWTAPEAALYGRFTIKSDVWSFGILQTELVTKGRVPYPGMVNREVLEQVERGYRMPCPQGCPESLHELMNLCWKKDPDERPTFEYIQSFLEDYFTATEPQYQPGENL

[6] = target: Abl(Q252H)(h) (Homo sapiens, UniProt P00519, Q252H)
[7] = target: CaMKIIδ(h) (Homo sapiens, UniProt Q13557)
Chain of CaMKIIδ(h) (Q13557 whole entry): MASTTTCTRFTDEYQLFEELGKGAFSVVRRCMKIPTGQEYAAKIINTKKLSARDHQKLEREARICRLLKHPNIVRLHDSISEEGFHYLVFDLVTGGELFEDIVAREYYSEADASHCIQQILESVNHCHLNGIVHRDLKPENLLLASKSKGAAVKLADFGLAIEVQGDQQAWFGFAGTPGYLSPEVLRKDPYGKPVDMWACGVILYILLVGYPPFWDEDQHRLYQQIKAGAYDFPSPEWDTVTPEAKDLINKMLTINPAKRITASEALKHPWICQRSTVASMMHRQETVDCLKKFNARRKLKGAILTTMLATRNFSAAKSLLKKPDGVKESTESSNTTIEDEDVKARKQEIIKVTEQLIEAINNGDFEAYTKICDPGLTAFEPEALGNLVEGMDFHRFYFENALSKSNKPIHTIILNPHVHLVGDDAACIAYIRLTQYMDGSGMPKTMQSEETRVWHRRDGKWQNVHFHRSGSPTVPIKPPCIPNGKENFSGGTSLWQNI

[8] = target: PKCα(h) (Homo sapiens, UniProt P17252)

Chain of MSK1(h) (O75582 whole entry): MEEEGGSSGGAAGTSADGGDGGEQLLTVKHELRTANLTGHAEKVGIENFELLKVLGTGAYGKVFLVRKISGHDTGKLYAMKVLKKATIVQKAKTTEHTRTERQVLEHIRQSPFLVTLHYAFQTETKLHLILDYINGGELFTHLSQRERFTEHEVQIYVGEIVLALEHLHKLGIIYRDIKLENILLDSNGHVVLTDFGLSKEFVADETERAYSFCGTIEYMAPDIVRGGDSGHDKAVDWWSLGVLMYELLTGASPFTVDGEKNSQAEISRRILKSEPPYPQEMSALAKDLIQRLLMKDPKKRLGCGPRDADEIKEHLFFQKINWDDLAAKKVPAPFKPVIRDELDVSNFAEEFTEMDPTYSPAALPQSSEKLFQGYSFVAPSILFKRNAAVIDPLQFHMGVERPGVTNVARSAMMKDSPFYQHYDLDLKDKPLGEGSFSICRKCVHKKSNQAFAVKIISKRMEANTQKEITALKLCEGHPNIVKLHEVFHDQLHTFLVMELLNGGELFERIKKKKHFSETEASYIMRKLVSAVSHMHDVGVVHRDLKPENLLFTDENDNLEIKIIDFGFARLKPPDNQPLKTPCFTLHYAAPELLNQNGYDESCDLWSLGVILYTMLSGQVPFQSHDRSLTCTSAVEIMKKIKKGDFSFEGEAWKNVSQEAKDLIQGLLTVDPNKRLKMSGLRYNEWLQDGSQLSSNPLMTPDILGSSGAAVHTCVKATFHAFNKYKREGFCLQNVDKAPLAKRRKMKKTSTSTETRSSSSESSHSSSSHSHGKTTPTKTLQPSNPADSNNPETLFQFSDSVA

`CC(C)CCC(=O)[C@]1(O)C(O)=C(C(=O)C(C)C)C(=O)[C@H]1CCC(C)C` [TH2, tetrahydroiso-cohumulone] was tested, and the kinase inhibition ([1]; 1 μg/ml) was 98% of control, the kinase inhibition ([1]; 5 μg/ml) was 103% of control and the kinase inhibition ([1]; 25 μg/ml) was 92% of control. For the same compound, the kinase inhibition ([1]; 50 μg/ml) was 64% of control, the kinase inhibition ([1]; 100 μg/ml) was 52% of control and the kinase inhibition ([2]; 1 μg/ml) was 106% of control. The kinase inhibition ([2]; 5 μg/ml) was 99% of control, the kinase inhibition ([2]; 25 μg/ml) was 100% of control and the kinase inhibition ([2]; 50 μg/ml) was 97% of control. For the same compound, the kinase inhibition ([2]; 100 μg/ml) was 87% of control, the kinase inhibition ([3]; 1 μg/ml) was 99% of control and the kinase inhibition ([3]; 5 μg/ml) was 112% of control. The kinase inhibition ([3]; 25 μg/ml) was 37% of control, the kinase inhibition ([3]; 50 μg/ml) was 39% of control and the kinase inhibition ([3]; 100 μg/ml) was 39% of control. For the same compound, the kinase inhibition ([4]; 1 μg/ml) was 88% of control, the kinase inhibition ([4]; 5 μg/ml) was 90% of control and the kinase inhibition ([4]; 25 μg/ml) was 89% of control. For the same compound, the kinase inhibition ([4]; 50 μg/ml) was 79% of control, the kinase inhibition ([4]; 100 μg/ml) was 61% of control and the kinase inhibition ([5]; 1 μg/ml) was 92% of control. For the same compound, the kinase inhibition ([5]; 5 μg/ml) was 81% of control, the kinase inhibition ([5]; 25 μg/ml) was 116% of control and the kinase inhibition ([5]; 50 μg/ml) was 111% of control. For the same compound, the kinase inhibition ([5]; 100 μg/ml) was 104% of control, the kinase inhibition ([6]; 1 μg/ml) was 96% of control and the kinase inhibition ([6]; 5 μg/ml) was 96% of control. The kinase inhibition ([6]; 25 μg/ml) was 66% of control, the kinase inhibition ([6]; 50 μg/ml) was 68% of control and the kinase inhibition ([6]; 100 μg/ml) was 47% of control. The kinase inhibition ([7]; 1 μg/ml) was 99% of control, the kinase inhibition ([7]; 5 μg/ml) was 99% of control and the kinase inhibition ([7]; 25 μg/ml) was 100% of control. The kinase inhibition ([7]; 50 μg/ml) was 91% of control, the kinase inhibition ([7]; 100 μg/ml) was 87% of control and the kinase inhibition ([8]; 1 μg/ml) was 103% of control. For the same compound, the kinase inhibition ([8]; 5 μg/ml) was 99% of control, the kinase inhibition ([8]; 25 μg/ml) was 98% of control and the kinase inhibition ([8]; 50 μg/ml) was 98% of control. The kinase inhibition ([8]; 100 μg/ml) was 71% of control.
